Laboratory results: paper PMC8445441, “Elucidating the mechanism by which synthetic helper peptides sensitize Pseudomonas aeruginosa to multiple antibiotics” (PLoS Pathogens, 2021)
“And” between values parts separate entries of the source, which are not always exact repeats. Equal values may be shown once. “Also recorded” adds a separate entry of the source. Positions of bridges follow the written chain, without caps; N, C: chain ends. Non-standard residues stand in square brackets, D forms with d. Residues, ends and D or L forms follow the SMILES beside them. *: point of attachment. X1 = CC[C@H](C)CCCCC(=O)*; Dab = NCC[C@H](N)C(=O)O

Legend:
P. aeruginosa PAO1 = assay: microbe, parasite or virus in culture; details: for MICac: the MIC for the antibiotic in the combination: S3 Table
Summary of the method: (§1)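 Values are lowest concentrations showing no visible growth after 18 h at 37 °C. Drugs were serially halved in MHB and combined with equal volumes of a roughly 1 × 10^6 CFU/mL suspension, following CLSI guidance, in triplicate.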

[1] = mice
Source text: Since D-11 contains five positively charged amino acids, it is easier to bind to bacterial negatively charged membrane components.
However, we still carried out high-dose toxicity tests in mice according to the recommendations.

HEK-293 cells = details: high concentration of D-11; cited from earlier work
Source text: Interes ... || Response: This comment is valuable. […] We believe that it is a safe drug candidate.

[2] = cited from earlier work
P. aeruginosa AUMC-Pa-3 = assay: microbe, parasite or virus in culture; details: strain AUMC-Pa-3, unit not given; for MICac: MIC of the antibiotic in the combination: with D-11 at MICbc 4
Summary of the method: as §1

P. aeruginosa AUMC-Pa-4 = assay: microbe, parasite or virus in culture; details: strain AUMC-Pa-4, unit not given; for MICa: MIC of the antibiotic: antibiotic alone; for MICac: MIC of the antibiotic in the combination: with D-11 at MICbc 4
Summary of the method: as §1

P. aeruginosa AUMC-Pa-5 = assay: microbe, parasite or virus in culture; details: strain AUMC-Pa-5, unit not given; for MICa: MIC of the antibiotic: antibiotic alone; for MICac: MIC of the antibiotic in the combination: with D-11 at MICbc 4
Summary of the method: as §1

P. aeruginosa AUMC-Pa-6 = assay: microbe, parasite or virus in culture; details: strain AUMC-Pa-6, unit not given; for MICa: MIC of the antibiotic: antibiotic alone; for MICac: MIC of the antibiotic in the combination: with D-11 at MICbc 4
Summary of the method: as §1

P. aeruginosa ATCC27853 = assay: microbe, parasite or virus in culture; parameters: MICa: MIC of the antibiotic / MICac: MIC of the antibiotic in the combination: unit not given beside the values; details: strain ATCC27853; for MICa: MIC of the antibiotic: antibiotic alone; for MICa: MIC of the antibiotic / MICac: MIC of the antibiotic in the combination: unit not given; for MICac: MIC of the antibiotic in the combination: with D-11 at MICbc 4
Summary of the method: as §1

P. aeruginosa NR-31040 = assay: microbe, parasite or virus in culture; parameters: MICa: MIC of the antibiotic / MICac: MIC of the antibiotic in the combination: unit not given beside the values; details: strain NR-31040, unit not given; for MICa: MIC of the antibiotic: antibiotic alone; for MICac: MIC of the antibiotic in the combination: with D-11 at MICbc 4
Summary of the method: as §1

P. aeruginosa NR-31041 = assay: microbe, parasite or virus in culture; parameters: MICa: MIC of the antibiotic / MICac: MIC of the antibiotic in the combination: unit not given beside the values; details: strain NR-31041, unit not given; for MICa: MIC of the antibiotic: antibiotic alone; for MICac: MIC of the antibiotic in the combination: with D-11 at MICbc 4
Summary of the method: as §1

P. aeruginosa PA14 = assay: microbe, parasite or virus in culture; parameters: MICa: MIC of the antibiotic / MICac: MIC of the antibiotic in the combination: unit not given beside the values; details: strain PA14, unit not given; for MICa: MIC of the antibiotic: antibiotic alone; for MICac: MIC of the antibiotic in the combination: with D-11 at MICbc 4
Summary of the method: as §1

P. aeruginosa PAK = assay: microbe, parasite or virus in culture; parameters: MICa: MIC of the antibiotic / MICac: MIC of the antibiotic in the combination: unit not given beside the values; details: strain PAK, unit not given; for MICa: MIC of the antibiotic: antibiotic alone; for MICac: MIC of the antibiotic in the combination: with D-11 at MICbc 4
Summary of the method: as §1

P. aeruginosa HM-214 = tested on: P. aeruginosa HM-214; parameters: MICa: MIC of the antibiotic / MICac: MIC of the antibiotic in the combination: unit not given beside the values; details: strain HM-214, unit not given; for MICa: MIC of the antibiotic: antibiotic alone; for MICac: MIC of the antibiotic in the combination: with D-11 at MICbc 4
Summary of the method: as §1

P. aeruginosa AUMC-Pa-1 = details: strain AUMC-Pa-1, unit not given; for MICac: MIC of the antibiotic in the combination: with D-11 at MICbc 4
Summary of the method: as §1

P. aeruginosa AUMC-Pa-2 = details: strain AUMC-Pa-2, unit not given; for MICa: MIC of the antibiotic: antibiotic alone; for MICac: MIC of the antibiotic in the combination: with D-11 at MICbc 4
Summary of the method: as §1

PAO1 in human blood = assay: Antimicrobial activity in blood (ex vivo bacteremia model); type: cell-based, Pseudomonas aeruginosa; details: human blood, 5×10^7 CFU/mL PAO1; antibiotic combined with D-11 (4 μM); 4 hours
Description: Human blood of healthy individuals was obtained from Sanquin (certified Dutch organization responsible for meeting the need in healthcare for blood and blood products, https://www.sanquin.nl/) and was infected with 5×10^7 CFU/mL of PAO1. The blood was distributed at 0.5 mL in 2 mL Eppendorf tubes and treated with the antibiotics and peptides at the indicated concentrations at 37 °C for 4 hours. The samples were decimal serially diluted in PBS. Drops of 10 μL of each dilution on LB agar to track the development of infection. The experiment was performed in triplicate.

[3] = tested on: clinical P. aeruginosa isolates; assay: microbe, parasite or virus in culture
Summary of the method: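 MIC is the lowest drug concentration showing no visible growth after 18 h at 37 °C. Two-fold dilutions in MHB were combined with an equal volume of bacterial suspension (about 1 × 10^6 CFU/mL), following CLSI broth microdilution, in triplicate.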

Molecule	MICac: MIC of the antibiotic in the combination (P. aeruginosa AUMC-Pa-3)	MICa: MIC of the antibiotic (P. aeruginosa AUMC-Pa-4)	MICac: MIC of the antibiotic in the combination (P. aeruginosa AUMC-Pa-4)	MICa: MIC of the antibiotic (P. aeruginosa AUMC-Pa-5)	MICac: MIC of the antibiotic in the combination (P. aeruginosa AUMC-Pa-5)	MICa: MIC of the antibiotic (P. aeruginosa AUMC-Pa-6)	MICac: MIC of the antibiotic in the combination (P. aeruginosa AUMC-Pa-6)	MICa: MIC of the antibiotic (P. aeruginosa ATCC27853)	MICac: MIC of the antibiotic in the combination (P. aeruginosa ATCC27853)	MICa: MIC of the antibiotic (P. aeruginosa NR-31040)	MICac: MIC of the antibiotic in the combination (P. aeruginosa NR-31040)	MICa: MIC of the antibiotic (P. aeruginosa NR-31041)	MICac: MIC of the antibiotic in the combination (P. aeruginosa NR-31041)	MICa: MIC of the antibiotic (P. aeruginosa PA14)	MICac: MIC of the antibiotic in the combination (P. aeruginosa PA14)	MICa: MIC of the antibiotic (P. aeruginosa PAK)	MICac: MIC of the antibiotic in the combination (P. aeruginosa PAK)	MICa: MIC of the antibiotic (P. aeruginosa HM-214)	MICac: MIC of the antibiotic in the combination (P. aeruginosa HM-214)	MICac: MIC of the antibiotic in the combination (P. aeruginosa AUMC-Pa-1)	other results
CC[C@@H](C)[C@@H](NC(=O)[C@H](N)CCCNC(=N)N)C(=O)N[C@@H](C(=O)N[C@H](CCC(N)=O)C(=O)N[C@H](CCCNC(=N)N)C(=O)N[C@@H](C(=O)N[C@H](CCCCN)C(=O)N[C@H](CCCCN)C(=O)N[C@H](Cc1c[nH]c2ccccc12)C(=O)N[C@H](CC(C)C)C(=O)N[C@H](CCCNC(=N)N)C(N)=O)[C@H](C)CC)C(C)C [Peptide D-11] (H-[dR][dI][dV][dQ][dR][dI][dK][dK][dW][dL][dR]-NH2)	–	–	–	–	–	–	–	–	–	–	–	–	–	–	–	–	–	–	–	–	MIC of the peptide (P. aeruginosa PAO1; PAO1, 18 h): 32 µM; MICb: the MIC of D-11 (P. aeruginosa PAO1; PAO1, 18 h): 32 µM; MICb: the MIC of the peptide (P. aeruginosa PAO1; PAO1, 18 h): 32 µM; side effects in vivo (in words) ([1]; 10 mg/kg D-11): no obvious side effects were observed; irritation after subcutaneous injection (in words) ([1]; subcutaneous 20 mg/kg D-11): slightly irritating; toxicity to HEK-293 cells (in words) (HEK-293 cells): not toxic to HEK-293 cells; also recorded: no toxicity to HEK-293 cells; stability in plasma (in words) [2]: stable in plasma
CC[C@H](C)CCCCC(=O)N[C@@H](CCN)C(=O)N[C@H](C(=O)N[C@@H](CCN)C(=O)N[C@H]1CCNC(=O)[C@H]([C@@H](C)O)NC(=O)[C@H](CCN)NC(=O)[C@H](CCN)NC(=O)[C@H](CC(C)C)NC(=O)[C@@H](Cc2ccccc2)NC(=O)[C@H](CCN)NC1=O)[C@@H](C)O [Polymyxin B] (X1-[Dab]T[Dab][Dab][Dab][dF]L[Dab][Dab]T; lactam 4-C (inferred); N-terminus assumed)	0.002	1	0.5	1	0.125	1	0.25	0.125	0.008	0.25	0.031	0.125	0.008	0.125	0.008	0.125	0.008	0.25	0.031	0.016	MICa: MIC of the antibiotic (P. aeruginosa AUMC-Pa-3; antibiotic alone): 0.125; MIC of polymyxin B (P. aeruginosa PAO1; 1×MIC used as positive control): 0.5 µg/mL; MICa: the MIC of antibiotics (P. aeruginosa PAO1; PAO1, 18 h): 0.25 µM; MICac: the MIC for the antibiotic in the combination (P. aeruginosa PAO1; PAO1, with 2 μM D-11): 0.004 µM; MICac: the MIC for the antibiotic in the combination (P. aeruginosa PAO1; PAO1, with 4 μM D-11): 0.001 µM; MICa: MIC of the antibiotic (P. aeruginosa AUMC-Pa-1; antibiotic alone): 0.25; MICa: MIC of the antibiotic (P. aeruginosa AUMC-Pa-2): 0.25; MICac: MIC of the antibiotic in the combination (P. aeruginosa AUMC-Pa-2): 0.016; antibacterial effect in blood (in words) (PAO1 in human blood): relative week antibacterial effects; Antibiotic sensibility (MIC) of clinical P. aeruginosa isolate AUMC-Pa-1 ([3]; clinical isolates, 18 h): 0.25 µM; Antibiotic sensibility (MIC) of clinical P. aeruginosa isolate AUMC-Pa-2 ([3]; clinical isolates, 18 h): 0.25 µM; Antibiotic sensibility (MIC) of clinical P. aeruginosa isolate AUMC-Pa-3 ([3]; clinical isolates, 18 h): 0.125 µM; Antibiotic sensibility (MIC) of clinical P. aeruginosa isolate AUMC-Pa-4 ([3]; clinical isolates, 18 h): 1 µM; Antibiotic sensibility (MIC) of clinical P. aeruginosa isolate AUMC-Pa-5 ([3]; clinical isolates, 18 h): 1 µM; Antibiotic sensibility (MIC) of clinical P. aeruginosa isolate AUMC-Pa-6 ([3]; clinical isolates, 18 h): 1 µM; Antibiotic sensibility (MIC) of clinical P. aeruginosa isolate HM-214 ([3]; clinical isolates, 18 h): 0.25 µM; Antibiotic sensibility (MIC) of clinical P. aeruginosa isolate NR-31040 ([3]; clinical isolates, 18 h): 0.25 µM; Antibiotic sensibility (MIC) of clinical P. aeruginosa isolate NR-31041 ([3]; clinical isolates, 18 h): 0.125 µM
Spiramycin	64	>128/>128	>128/>128	>128/128	>128/128	>128/128	>128/128	>128/128	>128/128	>128/128	>128/128	>128/128	>128/128	>128/128	>128/128	>128/128	>128/128	>128/128	>128/128	64	MIC of spiramycin alone (P. aeruginosa PAO1; PAO1): higher than 128 μM; FICI (P. aeruginosa PAO1; PAO1, spiramycin + D-11, 256 used for the calculation): 0.625; MICa: the MIC of antibiotics (P. aeruginosa PAO1; S1 Table, macrolide alone, PAO1): >128/>128 μM and >128/128 μM; FICI (P. aeruginosa ATCC27853; antibiotic + D-11 (MICb/MICbc 32/4)): 0.625; MICa: MIC of the antibiotic (P. aeruginosa AUMC-Pa-2): >128/128; MICac: MIC of the antibiotic in the combination (P. aeruginosa AUMC-Pa-2): >128/128; Antibiotic sensibility (MIC) of clinical P. aeruginosa isolate AUMC-Pa-1 ([3]; strain AUMC-Pa-1, antibiotic alone): >128 µM; Antibiotic sensibility (MIC) of clinical P. aeruginosa isolate AUMC-Pa-2 ([3]; strain AUMC-Pa-2, antibiotic alone): >128 µM; Antibiotic sensibility (MIC) of clinical P. aeruginosa isolate AUMC-Pa-3 ([3]; strain AUMC-Pa-3, antibiotic alone): >128 µM; Antibiotic sensibility (MIC) of clinical P. aeruginosa isolate AUMC-Pa-4 ([3]; strain AUMC-Pa-4, antibiotic alone): >128 µM; Antibiotic sensibility (MIC) of clinical P. aeruginosa isolate AUMC-Pa-5 ([3]; strain AUMC-Pa-5, antibiotic alone): >128 µM; Antibiotic sensibility (MIC) of clinical P. aeruginosa isolate AUMC-Pa-6 ([3]; strain AUMC-Pa-6, antibiotic alone): >128 µM; Antibiotic sensibility (MIC) of clinical P. aeruginosa isolate HM-214 ([3]; strain HM-214, antibiotic alone): >128 µM; Antibiotic sensibility (MIC) of clinical P. aeruginosa isolate NR-31040 ([3]; strain NR-31040, antibiotic alone): >128 µM; Antibiotic sensibility (MIC) of clinical P. aeruginosa isolate NR-31041 ([3]; strain NR-31041, antibiotic alone): >128 µM
